Data from US4156724A, “N-acylamino-alpha-arylacetamido cephalosporins and antibacterial compositions and methods containing them” (Sumitomo Chemical Company, Limited, priority 1974, dated 1979).
Converted amounts (≈) assume the structure as drawn. Read-outs that look alike come from different tables or passages of the source.

How the values were obtained:
Format in all cases: cell-based
[1] = tested on: Proteus vulgaris HX 19; test: Minimum Inhibitory Concentration, Proteus vulgaris HX 19; settings: HX19; Proteus vulgaris HX 19; read-out: Minimum Inhibitory Concentration
Method: (§1) anti-microbial activity tests were carried out on the compounds obtained in the Examples.

[2] = tested on: Klebsiella pneumoniae 602; test: Minimum Inhibitory Concentration, Klebsiella pneumoniae 602
Method: as §1

[3] = tested on: Staphylococcus aureus 209 P; test: Minimum Inhibitory Concentration, Staphylococcus aureus 209 P; settings: Staphylococcus aureus 209 P; read-out: Minimum Inhibitory Concentration
Method: as §1

[4] = tested on: Escherichia coli NIHJ; test: Minimum Inhibitory Concentration, Escherichia coli NIHJ; settings: read-out: Minimum Inhibitory Concentration
Method: as §1

[5] = tested on: Staphylococcus aureus FS 289; test: Minimum Inhibitory Concentration, Staphylococcus aureus FS 289; settings: FS289; Staphylococcus aureus FS 289, strain resistant to penicillin; read-out: Minimum Inhibitory Concentration
Method: as §1
*Staphylococcus aureus FS 289: strain resistant to penicillin

[6] = tested on: Enterobacter aerogeneus No. 75; test: Minimum Inhibitory Concentration, Enterobacter aerogeneus No. 75; settings: Enterobacter aerogeneus No. 75; read-out: Minimum Inhibitory Concentration
Method: as §1

[7] = tested on: Pseudomonas aeruginosa 104; test: Minimum Inhibitory Concentration, Pseudomonas aeruginosa 104; settings: Pseudomonas aeruginosa 104; read-out: Minimum Inhibitory Concentration
Method: as §1

[8] = tested on: Serratia No. 72; test: Minimum Inhibitory Concentration, Serratia No. 72
Method: as §1

[9] = Klebsiella pneumoniae, 602, Klebsiella pneumoniae 602, read-out: Minimum Inhibitory Concentration

SMILES	MIC [1] [µg/mL]	MIC [2, 9] [µg/mL]	MIC [3] [µg/mL]	MIC ([4]; Escherichia coli NIHJ) [µg/mL]	MIC [5] [µg/mL]	MIC [6] [µg/mL]	MIC [7] [µg/mL]	MIC [8] [µg/mL]	MIC ([2]; Klebsiella pneumoniae, 602, read-out: Minimum Inhibitory Concentration) [µg/mL]	MIC ([4]; Escherichia coli) [µg/mL]
COc1ccc2ncc(C(=O)NC(C(=O)NC3C(=O)N4C(C(=O)O)=C(CSc5cnn[nH]5)CSC34)c3ccc(CO)cc3)c(O)c2n1 (centres unmarked) [Example 106]	0.2 (≈ 0.295 µM)	1.56 (≈ 2.3 µM)	1.56 (≈ 2.3 µM)	3.13 (≈ 4.61 µM)	6.25 (≈ 9.21 µM)	6.25 (≈ 9.21 µM)	6.25 (≈ 9.21 µM)	12.5 (≈ 18.4 µM)	–	–
Cc1nnc(SCC2=C(C(=O)O)N3C(=O)C(NC(=O)C(NC(=O)c4cnc5ccc(N(C)C)nc5c4O)c4ccc(CO)cc4)C3SC2)s1 (centres unmarked) [Example 107]	0.1 (≈ 0.138 µM)	1.56 (≈ 2.16 µM)	1.56 (≈ 2.16 µM)	3.13 (≈ 4.33 µM)	6.25 (≈ 8.65 µM)	6.25 (≈ 8.65 µM)	6.25 (≈ 8.65 µM)	12.5 (≈ 17.3 µM)	–	–
Cn1nnnc1SCC1=C(C(=O)O)N2C(=O)C(NC(=O)C(NC(=O)c3cnc4cncnc4c3O)c3ccc(CO)cc3)C2SC1 (centres unmarked) [Example 108]	0.2 (≈ 0.301 µM)	3.13 (≈ 4.71 µM)	1.56 (≈ 2.35 µM)	3.13 (≈ 4.71 µM)	12.5 (≈ 18.8 µM)	6.25 (≈ 9.4 µM)	6.25 (≈ 9.4 µM)	25 (≈ 37.6 µM)	–	–
CSc1ncc2c(O)c(C(=O)NC(C(=O)NC3C(=O)N4C(C(=O)O)=C(CSc5nnnn5C)CSC34)c3ccc(CO)cc3)cnc2n1 (centres unmarked) [Example 109]	0.78 (≈ 1.1 µM)	6.25 (≈ 8.79 µM)	1.56 (≈ 2.19 µM)	6.25 (≈ 8.79 µM)	12.5 (≈ 17.6 µM)	12.5 (≈ 17.6 µM)	12.5 (≈ 17.6 µM)	50 (≈ 70.3 µM)	–	–
O=C(O)C1=C(CSc2nnc(CO)s2)CSC2C(NC(=O)C(NC(=O)c3cnccc3O)c3ccc(CO)cc3)C(=O)N12 (centres unmarked) [Example 110]	0.39 (≈ 0.605 µM)	12.5 (≈ 19.4 µM)	0.78 (≈ 1.21 µM)	12.5 (≈ 19.4 µM)	6.25 (≈ 9.69 µM)	25 (≈ 38.8 µM)	12.5 (≈ 19.4 µM)	100 (≈ 155 µM)	–	–
O=C(O)C1=C(CSc2ccc(O)nn2)CSC2C(NC(=O)C(NC(=O)c3cnccc3O)c3ccc(CO)cc3)C(=O)N12 (centres unmarked) [Example 111]	0.39 (≈ 0.624 µM)	6.25 (≈ 10 µM)	0.78 (≈ 1.25 µM)	12.5 (≈ 20 µM)	6.25 (≈ 10 µM)	12.5 (≈ 20 µM)	12.5 (≈ 20 µM)	100 (≈ 160 µM)	–	–
Cn1nnnc1SCC1=C(C(=O)O)N2C(=O)C(NC(=O)C(NC(=O)c3cccnc3O)c3ccc(CO)cc3)C2SC1 (centres unmarked) [Example 112]	0.78 (≈ 1.27 µM)	6.25 (≈ 10.2 µM)	0.78 (≈ 1.27 µM)	12.5 (≈ 20.4 µM)	12.5 (≈ 20.4 µM)	25 (≈ 40.8 µM)	12.5 (≈ 20.4 µM)	100 (≈ 163 µM)	–	–
CC(=O)OCC1=C(C(=O)O)N2C(=O)C(NC(=O)[C@H](NC(=O)c3cnccc3O)c3ccc(O)cc3)C2SC1 (stereo partly drawn) [Example 113, 7-[D-α-(4-Hydroxypyridine-3-carbonamido)-α-p-hydroxyphenylacetamido]cephalosporanic Acid]	0.2 (≈ 0.369 µM)	12.5 (≈ 23 µM)	0.39 (≈ 0.719 µM)	12.5 (≈ 23 µM)	3.13 (≈ 5.77 µM)	25 (≈ 46.1 µM)	6.25 (≈ 11.5 µM)	> 200	–	–
CC(=O)OCC1=C(C(=O)O)N2C(=O)C(NC(=O)C(NC(=O)c3cnccc3O)c3cccc(O)c3)C2SC1 (centres unmarked) [Example 114]	0.39 (≈ 0.719 µM)	12.5 (≈ 23 µM)	0.39 (≈ 0.719 µM)	12.5 (≈ 23 µM)	6.25 (≈ 11.5 µM)	25 (≈ 46.1 µM)	6.25 (≈ 11.5 µM)	> 200	–	–
CC(=O)OCC1=C(C(=O)O)N2C(=O)C(NC(=O)C(NC(=O)c3cccnc3O)c3ccc(O)cc3)C2SC1 (centres unmarked) [Example 115]	0.78 (≈ 1.44 µM)	25 (≈ 46.1 µM)	0.39 (≈ 0.719 µM)	12.5 (≈ 23 µM)	6.25 (≈ 11.5 µM)	25 (≈ 46.1 µM)	12.5 (≈ 23 µM)	> 200	–	–
CC(=O)OCC1=C(C(=O)O)N2C(=O)C(NC(=O)[C@H](NC(=O)c3ccnnc3O)c3ccc(O)cc3)C2SC1 (some centres unmarked) [Example 116]	0.2 (≈ 0.368 µM)	6.25 (≈ 11.5 µM)	0.39 (≈ 0.718 µM)	12.5 (≈ 23 µM)	3.13 (≈ 5.76 µM)	25 (≈ 46 µM)	6.25 (≈ 11.5 µM)	> 200	–	–
CC(=O)OCC1=C(C(=O)O)N2C(=O)C(NC(=O)[C@H](NC(=O)c3cnccc3O)c3ccc(O)c(Cl)c3)C2SC1 (some centres unmarked) [Example 117]	0.2 (≈ 0.347 µM)	12.5 (≈ 21.7 µM)	0.39 (≈ 0.676 µM)	12.5 (≈ 21.7 µM)	6.25 (≈ 10.8 µM)	25 (≈ 43.3 µM)	6.25 (≈ 10.8 µM)	100 (≈ 173 µM)	–	–
CC(=O)OCC1=C(C(=O)O)N2C(=O)C(NC(=O)[C@H](NC(=O)c3cncnc3O)c3ccc(O)cc3)C2SC1 (some centres unmarked) [Example 118]	0.39 (≈ 0.718 µM)	25 (≈ 46 µM)	0.39 (≈ 0.718 µM)	12.5 (≈ 23 µM)	6.25 (≈ 11.5 µM)	25 (≈ 46 µM)	6.25 (≈ 11.5 µM)	> 200	–	–
CC(=O)OCC1=C(C(=O)O)N2C(=O)C(NC(=O)[C@H](NC(=O)c3cnc(O)nc3O)c3ccc(O)cc3)C2SC1 (some centres unmarked) [Example 119]	0.39 (≈ 0.697 µM)	25 (≈ 44.7 µM)	0.39 (≈ 0.697 µM)	6.25 (≈ 11.2 µM)	6.25 (≈ 11.2 µM)	25 (≈ 44.7 µM)	6.25 (≈ 11.2 µM)	> 200	–	–
CC(=O)OCC1=C(C(=O)O)N2C(=O)C(NC(=O)[C@H](NC(=O)c3cnc4cccnc4c3O)c3ccc(O)cc3)C2SC1 (stereo partly drawn) [Example 120, 7-[D-α-(4-Hydroxy-1,5-naphthyridine-3-carbonamido)-α-hydroxyphenylacetamido]cephalosporanic Acid]	0.39 (≈ 0.657 µM)	–	0.78 (≈ 1.31 µM)	–	6.25 (≈ 10.5 µM)	6.25 (≈ 10.5 µM)	6.25 (≈ 10.5 µM)	50 (≈ 84.2 µM)	1.56 (≈ 2.63 µM)	3.13 (≈ 5.27 µM)
CC(=O)OCC1=C(C(=O)O)N2C(=O)C(NC(=O)[C@H](NC(=O)c3cnc4cccnc4c3O)c3ccc(O)c(Cl)c3)C2SC1 (some centres unmarked) [Example 122]	0.39 (≈ 0.621 µM)	3.13 (≈ 4.98 µM)	0.78 (≈ 1.24 µM)	3.13 (≈ 4.98 µM)	6.25 (≈ 9.95 µM)	6.25 (≈ 9.95 µM)	6.25 (≈ 9.95 µM)	50 (≈ 79.6 µM)	–	–
CC(=O)OCC1=C(C(=O)O)N2C(=O)C(NC(=O)[C@H](NC(=O)c3cnc4nc(C)ccc4c3O)c3ccc(O)cc3)C2SC1 (some centres unmarked) [Example 123]	0.78 (≈ 1.28 µM)	3.13 (≈ 5.15 µM)	0.78 (≈ 1.28 µM)	6.25 (≈ 10.3 µM)	6.25 (≈ 10.3 µM)	12.5 (≈ 20.6 µM)	6.25 (≈ 10.3 µM)	100 (≈ 165 µM)	–	–
CC(=O)OCC1=C(C(=O)O)N2C(=O)C(NC(=O)[C@H](NC(=O)c3nnc4ccccc4c3O)c3ccc(O)cc3)C2SC1 (stereo partly drawn) [Example 124, 7-[D-α-(4-hydroxycinnoline-3-carbonamido)-α-p-hydrxyphenylacetamido]cephalosporanic acid]	0.78 (≈ 1.31 µM)	12.5 (≈ 21.1 µM)	0.78 (≈ 1.31 µM)	12.5 (≈ 21.1 µM)	6.25 (≈ 10.5 µM)	25 (≈ 42.1 µM)	12.5 (≈ 21.1 µM)	100 (≈ 168 µM)	–	–
Cc1nnc(SCC2=C(C(=O)O)N3C(=O)C(NC(=O)[C@H](NC(=O)c4cnccc4O)c4ccc(O)cc4)C3SC2)s1 (stereo partly drawn) [Example 125, 7-[D-α-(4-Hydroxypyridine-3-carbonamido)-α-p-hydroxyphenylacetamido]-3-(2-methyl-1,3,4-thiadiazol-5-yl)thiomethyl-3-cephem-4-carboxylic Acid]	0.1 (≈ 0.163 µM)	6.25 (≈ 10.2 µM)	0.39 (≈ 0.634 µM)	6.25 (≈ 10.2 µM)	6.25 (≈ 10.2 µM)	12.5 (≈ 20.3 µM)	12.5 (≈ 20.3 µM)	50 (≈ 81.3 µM)	–	–
